The text below walks through data of the supplement of paper PMC11061612.

The structures appear in SMILES notation.

The test system of one assay is RH-1 (Ewing's Sarcoma). The experiment in a line: Bliss excess, mean over the matrix (fraction); higher = more synergy. A digest of the protocol: (§1)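 Cell lines grown in DMEM/F12 or RPMI with 10% FBS were plated in 1536-well plates and held 24 hours at 37°C, 5% CO2 before 72 hours of exposure to two-drug dose matrices, with DMSO typically at 0.2%. CellTiter-Glo 2.0 luminescence gave viability, which was converted to inhibition. Vehicle wells were set to 0 and blank wells to 1. Combination Emax is the second-highest inhibition in the matrix, and Bliss excess is the observed combination effect minus the expected EA + EB − EA·EB, where EA and EB are the single-agent effects.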

Assay [1] deals with COR-L95 (Small Cell Lung Carcinoma). The assay is described as above. A digest of the protocol: as §1
For assay [2], the system named is KARPAS-620 (Plasma Cell Myeloma). The assay is described as above. The method, boiled down: as §1
Assay [3] deals with 697 (B-Lymphoblastic Leukemia). Described as above. The method, boiled down: as §1
Assay [4] deals with DSH1 (Bladder Carcinoma). Described as above. A digest of the protocol: as §1
The subject of assay [5] is HPAC (Pancreatic Carcinoma). Described as above. A digest of the protocol:
as §1

The subject of assay [6] is LS-513 (Colorectal Carcinoma). The description is as above. A digest of the protocol:
as §1

The subject of assay [7] is CFPAC-1 (Pancreatic Carcinoma). The description is as above. The method, boiled down:
as §1

The test system of assay [8] is JiyoyeP-2003 (Burkitt's Lymphoma). Described as above. A digest of the protocol: as §1
Assay [9] has as its system COR-L95 (Small Cell Lung Carcinoma). Briefly: combination Emax (second highest fraction inhibited in the dose matrix, 72 h); higher = more inhibition; extreme values may be limits of the assay. A digest of the protocol: as §1
Assay [10] concerns KM-H2 (Hodgkin's Lymphoma). Described as above. A digest of the protocol: as §1
The subject of assay [11] is DB (B-Cell Non-Hodgkin's Lymphoma). Described as above. The method, boiled down: as §1
The subject of assay [12] is C3A (Hepatocellular Carcinoma). The description is as above. The method, boiled down:
as §1

For assay [13], the system named is DSH1 (Bladder Carcinoma). The description is as above. The method, boiled down: as §1
The test system of assay [14] is MDA-MB-231 (Breast Carcinoma). The description is as above. The method, boiled down: as §1
The subject of assay [15] is NCI-H1781 (Lung Adenocarcinoma). The assay is described as above. The method, boiled down: as §1
For assay [16], the system named is DMS-273 (Small Cell Lung Carcinoma). Described as above. The method, boiled down: as §1
Assay [17] concerns SW756 (Cervical Carcinoma). The description is as above. The method, boiled down:
as §1

Assay [18] relates to NALM-6 (B-Lymphoblastic Leukemia). The description is as above. A digest of the protocol: as §1
In assay [19] the test system is HT-29 (Colorectal Carcinoma). Described as above. A digest of the protocol: as §1
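Wherever Bliss excess, mean over the matrix is given: after 72 h of two-drug dosing.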

Turning to `CN(C)CCCOc1ccc(-c2ccc3ncc4c(c3c2)n(C2CCOCC2)c(=O)n4C)cn1` [AZD0156] + C[C@@H]1COCCN1C2=NC(=NC(=C2)C3(CC3)[S@](=N)(=O)C)C4=C5C=CNC5=NC=C4 [AZD6738] (first compound max 1 µM, 7x7, partner max 10 µM), the Bliss excess in the assay with RH-1 (Ewing's Sarcoma) is 0.0731; in assay [1] it was -0.0363; in assay [2], 0.0058; in assay [3], 0.0085; in the assay on DSH1 (Bladder Carcinoma) [4] it was 0.0773; in assay [5], 0.067. Besides, the Bliss excess is 0.0068 in [6], -0.0137 in [7] and 0.0501 in assay [8]. Besides, the “combination Emax” value in assay [9] was found to be 0.525; in assay [10] it was 0.821; in [11] it was 0.628; in assay [12], 0.584; in the assay with DSH1 (Bladder Carcinoma) [13], 0.823; in assay [14], 0.736. Besides, the “combination Emax” value in assay [15] was determined as 0.346; in assay [16], 0.834; in [17], 0.322; in [18], 0.903; in assay [19] it was 0.823.
